Measurements: patent US9359348B2, “Cyclopropyl imidazopyridine PDE10 inhibitors” (Merck Sharp & Dohme Corp., priority 2012, dated 2016)

Target: human PDE10A2 (Homo sapiens (Human), UniProt Q9Y233)
Assay: PDE10 fluorescence polarization (IMAP FP) inhibition assay
Assay type: biochemical
Details: FAM-labeled cAMP 50 nM, room temperature
Protocol: The activity of the compounds in accordance with the present invention as PDE10 inhibitors may be readily determined without undue experimentation using a fluorescence polarization (FP) methodology that is well known in the art (Huang, W., et al., J. Biomol Screen, 2002, 7: 215).
In a typical experiment the PDE10 inhibitory activity of the compounds of the present invention was determined in accordance with the following experimental method. PDE10A2 was amplified from human fetal brain cDNA (Clontech, Mountain View, Calif.) using a forward primer corresponding to nucleotides 56-77 of human PDE10A2 (Accession No. AF127480, Genbank Identifier 4894716), containing a Kozak consensus sequence, and a reverse primer corresponding to nucleotides 2406-2413 of human PDE10A2 (Accession No. AF127480, Genbank Identifier 4894716). Amplification with Easy-A polymerase (Stratagene, La Jolla, Calif.) was 95° C. for 2 minutes followed by thirty three cycles of 95° C. for 40 seconds, 55° C. for 30 seconds, and 72° C. for 2 minutes 48 seconds. Final extension was 72° C. for 7 minutes. The PCR product was TA cloned into pcDNA3.2-TOPO (Invitrogen, Carlsbad, Calif.) according to standard protocol. AD293 cells with 70-80% confluency were transiently transfected with human PDE10A2/pcDNA3.2-TOPO using Lipofectamine 2000 according to manufacturer specifications (Invitrogen, Carlsbad, Calif.). Cells were harvested 48 hours post-transfection and lysed by sonication (setting 3, 10×5 sec pulses) in a buffer containing 20 mM HEPES, 1 mM EDTA and protease inhibitor cocktail (Roche). Lysate was collected by centrifugation at 75,000 xg for 20 minutes. Supernatant containing the cytoplasmic fraction was used for evaluation of PDE10A2 activity. The fluorescence polarization assay for cyclic nucleotide phosphodiesterases was performed using an IMAP® FP kit supplied by Molecular Devices, Sunnyvale, Calif. (product # R8139). IMAP® technology has been applied previously to phosphodiesterase assays (Huang, W., et al., J. Biomol Screen, 2002, 7: 215). Assays were performed at room temperature in 384-well microtiter plates with an incubation volume of 20.2 μL. Solutions of test compounds were prepared in DMSO and serially diluted with DMSO to yield 8 μL of each of 10 solutions differing by 3-fold in concentration, at 32 serial dilutions per plate. 100% inhibition is determined using a known PDE10 inhibitor, which can be any compound that is present at 5,000 times its Ki value in the assay described as follows, such as papaverine (see Siuciak, et al. Neuropharmacology (2006) 51:386-396; Becker, et al. Behav Brain Res (2008) 186(2):155-60; Threlfell, et al., J Pharmacol Exp Ther (2009) 328(3):785-795), 2-{4-[pyridin-4-yl-1-(2,2,2-trifluoroethyl)-1H-pyrazol-3-yl]phenoxymethyl}quinoline succinic acid or 2-[4-(1-methyl-4-pyridin-4-yl-1H-pyrazol-3-yl)-phenoxymethyl]quinoline succinic acid (see Schmidt, et al. J Pharmacol Exp Ther (2008) 325:681-690; Threlfell, et al., J Pharmacol Exp Ther (2009) 328(3): 785-795). 0% of inhibition is determined by using DMSO (1% final concentrations).
A Labcyte Echo 555 (Labcyte, Sunnyvale, Calif.) is used to dispense 200 nL from each well of the titration plate to the 384 well assay plate. A solution of enzyme (1/1600 dilution from aliquots; sufficient to produce 20% substrate conversion) and a separate solution of FAM-labeled cAMP PDE from Molecular Devices (product # R7506), at a final concentration of 50 nM are made in the assay buffer (10 mM Tris HCl, pH 7.2, 10 mM MgCl2, 0.05% NaN3 0.01% Tween-20, and 1 mM DTT). The enzyme and the substrate are then added to the assay plates in two consecutive additions of 10 μL, and then shaken to mix. The reaction is allowed to proceed at room temperature for 30 minutes. A binding solution is then made from the kit components, comprised of 80% Solution A, 20% Solution B and binding reagent at a volume of 1/600 the total binding solution. […]

Sequence of human PDE10A2 (Q9Y233 267-1055): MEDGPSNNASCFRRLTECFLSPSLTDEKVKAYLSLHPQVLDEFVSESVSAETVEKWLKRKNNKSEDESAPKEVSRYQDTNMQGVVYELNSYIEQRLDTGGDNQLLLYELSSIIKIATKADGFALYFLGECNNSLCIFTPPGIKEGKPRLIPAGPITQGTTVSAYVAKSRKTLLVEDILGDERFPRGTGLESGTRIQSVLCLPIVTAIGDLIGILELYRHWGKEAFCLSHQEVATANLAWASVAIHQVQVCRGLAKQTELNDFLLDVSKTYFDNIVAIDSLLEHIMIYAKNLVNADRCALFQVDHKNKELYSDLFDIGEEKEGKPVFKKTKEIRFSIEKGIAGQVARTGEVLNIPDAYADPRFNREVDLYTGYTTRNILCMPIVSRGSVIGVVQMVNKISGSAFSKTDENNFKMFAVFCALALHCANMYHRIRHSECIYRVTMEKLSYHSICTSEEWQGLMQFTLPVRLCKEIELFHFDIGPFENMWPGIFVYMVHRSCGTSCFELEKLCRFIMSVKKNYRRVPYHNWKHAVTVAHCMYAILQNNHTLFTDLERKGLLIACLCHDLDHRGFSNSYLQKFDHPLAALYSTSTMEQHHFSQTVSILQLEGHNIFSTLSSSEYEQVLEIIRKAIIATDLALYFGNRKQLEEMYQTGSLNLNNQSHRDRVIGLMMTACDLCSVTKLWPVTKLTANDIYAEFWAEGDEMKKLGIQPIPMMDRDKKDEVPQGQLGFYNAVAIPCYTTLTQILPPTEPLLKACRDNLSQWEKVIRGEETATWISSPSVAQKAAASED

Structure (SMILES)	Ki
Cc1nc([C@@H]2C[C@H]2c2cn3c(C)cccc3n2)cc(-n2nc(C)nc2C)n1 (relative stereo) [Example 2, 2-((trans)-2-(6-(3,5-dimethyl-1H-1,2,4-triazol-1-yl)-2-methylpyrimidin-4-yl)cyclopropyl)-5-methylimidazo[1,2-a]pyridine]	8.3 nM
Cc1ccc2nc([C@@H]3C[C@H]3c3cc(-n4nc(C)nc4C)nc(C)n3)cn2c1 (relative stereo) [Example 3, 2-((trans)-2-(6-(3,5-dimethyl-1H-1,2,4-triazol-1-yl)-2-methylpyrimidin-4-yl)cyclopropyl)-6-methylimidazo[1,2-a]pyridine]	24 nM
Cc1ccn2cc([C@@H]3C[C@H]3c3cc(-n4nc(C)nc4C)nc(C)n3)nc2c1 (relative stereo) [Example 4, 2-((trans)-2-(6-(3,5-dimethyl-1H-1,2,4-triazol-1-yl)-2-methylpyrimidin-4-yl)cyclopropyl)-7-methylimidazo[1,2-a]pyridine]	44 nM
Cc1nc([C@@H]2C[C@H]2c2cn3cccc(C)c3n2)cc(-n2nc(C)nc2C)n1 (relative stereo) [Example 5, 2-((trans)-2-(6-(3,5-dimethyl-1H-1,2,4-triazol-1-yl)-2-methylpyrimidin-4-yl)cyclopropyl)-8-methylimidazo[1,2-a]pyridine]	> 75 nM
Cc1nc([C@@H]2C[C@H]2c2cn3cccc(F)c3n2)cc(-n2nc(C)nc2C)n1 (relative stereo) [Example 6, 2-((trans)-2-(6-(3,5-dimethyl-1H-1,2,4-triazol-1-yl)-2-methylpyrimidin-4-yl)cyclopropyl)-8-fluoroimidazo[1,2-a]pyridine]	> 75 nM
Cc1nc([C@@H]2C[C@H]2c2cn3ccc(F)cc3n2)cc(-n2nc(C)nc2C)n1 (relative stereo) [Example 7, 2-((trans)-2-(6-(3,5-dimethyl-1H-1,2,4-triazol-1-yl)-2-methylpyrimidin-4-yl)cyclopropyl)-7-fluoroimidazo[1,2-a]pyridine]	13 nM
Cc1nc([C@@H]2C[C@H]2c2nc3ccccn3c2I)cc(-n2nc(C)nc2C)n1 (relative stereo) [Example 8, 2-((trans)-2-(6-(3,5-dimethyl-1H-1,2,4-triazol-1-yl)-2-methylpyrimidin-4-yl)cyclopropyl)-3-iodoimidazo[1,2-a]pyridine]	9 nM
Cc1nc([C@@H]2C[C@H]2c2nc3ccccn3c2C)cc(-n2nc(C)nc2C)n1 (relative stereo) [Example 9, 2-((trans)-2-(6-(3,5-dimethyl-1H-1,2,4-triazol-1-yl)-2-methylpyrimidin-4-yl)cyclopropyl)-3-methylimidazo[1,2-a]pyridine]	2.1 nM
C=Cc1c([C@@H]2C[C@H]2c2cc(-n3nc(C)nc3C)nc(C)n2)nc2ccccn12 (relative stereo) [Example 10, 2-((trans)-2-(6-(3,5-dimethyl-1H-1,2,4-triazol-1-yl)-2-methylpyrimidin-4-yl)cyclopropyl)-3-vinylimidazo[1,2-a]pyridine]	3.8 nM
Cc1nc([C@@H]2C[C@H]2c2nc3ccccn3c2C#N)cc(-n2nc(C)nc2C)n1 (relative stereo) [Example 11, 2-((trans)-2-(6-(3,5-dimethyl-1H-1,2,4-triazol-1-yl)-2-methylpyrimidin-4-yl)cyclopropyl)imidazo[1,2-a]pyridine-3-carbonitrile]	> 75 nM
Cc1nc([C@H]2C[C@@H]2c2cn3ccccc3n2)cc(-n2nc(C)nc2C)n1 (stereo in doubt) [Example 1, 2-((1S,2S)-2-(6-(3,5-dimethyl-1H-1,2,4-triazol-1-yl)-2-methylpyrimidin-4-yl)cyclopropyl)imidazo[1,2-a]pyridine]	5.8 nM
